Test system: Mdr2−/− mice
Experiment: In vivo animal model of primary sclerosing cholangitis (Mdr2-/- mice)
Conditions: daily oral gavage for 2-4 weeks, vs vehicle
Excerpt: A genetic mice with targeted disruption of the Multidrug resistant Mdr2 (Abcb4) gene encoding a canalicular phospholipid flippase (Mdr2−/− mice) spontaneously develop sclerosing cholangitis with macroscopic and microscopic features of human Primary sclerosing cholangitis. Bile duct injury in these mice is linked to defective biliary phospholipid secretion resulting in an increased concentration of free non-micellar bile acids which subsequently cause bile duct epithelial cell (cholangiocyte) injury, pericholangitis, periductal fibrosis with ductular proliferation and finally sclerosing cholangitis. […] In analogy to the Mdr2−/− mouse model of sclerosing cholangitis, Multidrug resistant protein MDR3/ABCB4 (the human orthologue of rodent Mdr2/Abcb4) defects play a role in the pathogenesis of various cholangiopathies in humans. MDR3 variants play a role as a modifier gene in the pathogenesis of various cholangiopathies such as PSC, Primary Biliary cirrhosis (PBC) and adulthood idiopathic ductopenia/billary fibrosis.
Mdr2−/− mice were given daily oral doses of the compound of Example 14 by gavage for 2-4 weeks and controls were dosed the vehicle in the same way. Serum liver tests, liver histology and fibrosis were investigated. The compound of Example 14 improves liver tests, liver histology and fibrosis.

## CCCCC1(CCCC)CN(c2ccccc2)c2cc(SC)c(OCC(=O)N[C@@H](C(=O)NCC(=O)O)c3ccccc3)cc2S(=O)(=O)C1 [Example 14, 1,1-Dioxo-3,3-dibutyl-5-phenyl-7-methylthio-8-(N—{(R)-1′-phenyl-1′-[N′-(carboxymethyl)carbamoyl]methyl}carbamoylmethoxy)-2,3,4,5-tetrahydro-1,5-benzothiazepine]
  Serum liver tests: improves
